Values quoted from earlier work in patent publication US20240398886A1, “EFFECTIVE EYELID, FACE, HEAD AND BODY CLEANSER” (priority 2023, published 2024).

What was measured:
[1] = humans and warm-blooded vertebrates; refs (12, 13)
[2] = mammals; refs (12, 13)

## C/C=C(\C)C(=O)O[C@H]1C[C@@H](OC(C)=O)[C@@]2(C(=O)OC)CO[C@H]3[C@@H](O)[C@@](C)([C@]45O[C@@]4(C)[C@H]4C[C@@H]5O[C@@H]5OC=C[C@@]54O)[C@H]4[C@]1(CO[C@]4(O)C(=O)OC)[C@@H]32 [Azadirachtin]
[1]
  toxicity: non-toxic
[2]
  genotoxicity: without genotoxicity
